Columns and labels:
[1] = tested on: murine leukemia L1210 cells; assay: Growth inhibition test on cultured murine leukemia L1210 cells; type: cell-based; details: 48 hours, 37° C., Trypan blue viability
Procedure: 1. Growth inhibition test on cultured murine leukemia L1210 cells
Murine leukemia L1210 cells(1×10^5) were treated with various concentrations of the compounds prepared in the above examples in RPMI 1640 medium supplemented with 10% fetal calf serum, and cultured in a 5% CO2 humidified incubator at 37° C. for 48 hours. Their viability, estimated by staining with 0.17% Trypan blue, was compared with that of control cells cultured in the identical medium without the compounds.

murine leukemia L1210 = assay: Antitumor activity test on murine leukemia L1210 in vivo; set-up: species or system male BDF1 mice; details: days 1, 5, 9
Procedure: 2. Antitumor activity test on murine leukemia L1210 in vivo
Murine leukemia L1210 cells were maintained in the peritoneal cavities of 6-week-old male DBA/2 mice by weekly transfer in accordance with the procedure described in cancer chemotherapy Reports, Part 3, 3(2), 7 (1972). Specifically, 1×10^6 leukemia cells were inoculated into the abdominal cavities of 6-week-old male BDF1 mice weighing 21±3 g on day 0. Each treatment group consisted of seven mice. The test compounds were dissolved or suspended in 0.5% carboxymethyl cellulose(CMC)solution (in water) and were administered intraperitoneally on days 1, 5, and 9 relative to the tumor inoculation.
Thirty mice of 6-week-old male BDF1 weighing 21±3 g were used as the control group, which were injected with 0.5% CMC solution only in the same manner as above.
Anti-tumor activities of the compounds were evaluated in terms of the T/C % values calculated from the mean survival time(T) of the compound-treated group over that(C) of the control group. [formula]

[2] = Test for water solubility; type: physicochemical
Excerpt: 3. Test for water solubility
A standard plot of UV absorbance(220 nm) vs. concentration was made; and employed to determine water-solubility.
The mixture was then passed through a 0.45 micron disposable membrane filter before dilution and UV measurement.

Row | Structure (SMILES) | IC50 (concentration required for 50% inhibition of growth) [1] [µg/mL] | T/C (%) (murine leukemia L1210; 3.1 mg/kg i.p.) | T/C (%) (murine leukemia L1210; 6.2 mg/kg i.p.) | T/C (%) (murine leukemia L1210; 12.5 mg/kg i.p.) | T/C (%) (murine leukemia L1210; 25 mg/kg i.p.) | T/C (%) (murine leukemia L1210; 50 mg/kg i.p.) | Solubility in water ([2]; water) [µg/mL] | Solubility in water ([2]; 20° C.) [µg/mL] | T/C (%) (murine leukemia L1210; 100 mg/kg i.p.)
1 | CCCC1OC2C[NH2+][Pt-2]3([NH2+]CC2O1)[O]CC(=O)[O]3 [Example 10, (glycolato-O,O')[(4R,5R)-4,5-bis(aminomethyl)-2-propyl-1,3-dioxolane]platinum(II)] | 0.13 | 154 | 161 | 201 | toxic | toxic | > 30000 |  | 
2 | CC(C)CC1OC2C[NH2+][Pt-2]3([NH2+]CC2O1)[O]CC(=O)[O]3 [Example 11, (glycolato-O,O')[(4R,5R)-4,5-bis(aminomethyl)-2-isobutyl-1,3-dioxolane]platinum(II)] | 0.10 | 102 | 146 | 191 | toxic | toxic | 4600 |  | 
3 | CC(C)(C)C1OC2C[NH2+][Pt-2]3([NH2+]CC2O1)[O]CC(=O)[O]3 [Example 12, (glycolato-O,O')[(4R,5R)-4,5-bis(aminomethyl)-2-tert-butyl-1,3-dioxolane]platinum(II)] | 0.10 | 104 | 136 | 154 | 167% | toxic | 2100 |  | 
4 | CC1[O][Pt][O]C1=O.NCC1OC2(CCCCC2)OC1CN [Example 16, (L-lactato-O,O'){cyclohexanespiro-2'-[(4'R,5'R)-4',5'-bis(aminomethyl)-1',3'-dioxolane]}platinum(II)] | 0.34 |  |  | 204 | 227% | toxic | 3800 |  | 
5 | CCC1OC2C[NH2+][Pt-2]3([NH2+]CC2O1)[O]C(=O)C1(CCC1)C(=O)[O]3 [Example 25, cis-cyclobutane-1,1-dicarboxylato[(4S,5S)-4,5-bis(aminomethyl)-2-ethyl-1,3-dioxolane]platinum(II)] | 1.02 |  |  |  |  |  |  | 11800 | 
6 | CC1(C)OC2C[NH2+][Pt-2]3([NH2+]CC2O1)[O]C(=O)C1(CCC1)C(=O)[O]3 [Example 27, cis-cyclobutane-1,1-dicarboxylato[(4S,5S)-4,5-bis(aminomethyl)-2,2-dimethyl-1,3-dioxolane]platinum(II)] | 2.36 |  | 112 | 106 | 124% | 148% | 1900 |  | 142%
7 | CC(C)C1OC2C[NH2+][Pt-2]3([NH2+]CC2O1)[O]C(=O)C1(CCC1)C(=O)[O]3 [Example 28, cis-cyclobutane-1,1-dicarboxylato[(4R,5R)-4,5-bis(aminomethyl)-2-isopropyl-1,3-dioxolane]platinum(II)] | 1.14 |  | 113 | 106 | 126% | 133% | 2100 |  | 130%
8 | CC(C)C1OC2C[NH2+][Pt-2]3([NH2+]CC2O1)[O]C(=O)C1(CCC1)C(=O)[O]3 [Example 29, cis-cyclobutane-1,1-dicarboxylato[(4S,5S)-4,5-bis(aminomethyl)-2-isopropyl-1,3-dioxolane]platinum(II)] | 2.12 |  |  |  |  |  |  | 2000 | 
9 | O=C1[O][Pt-2]2([NH2+]CC3OC4(CCCC4)OC3C[NH2+]2)[O]C(=O)C12CCC2 [Example 31, cis-cyclobutane-1,1-dicarboxylato[(4S,5S)-4,5-bis(aminomethyl)-1,3-dioxolane-2-spiro-1'-cyclopentane]platinum(II)] | 1.75 |  | 102 | 109 | 94% | 106% | 1900 |  | 117%
10 | O=C1[O][Pt-2]2([NH2+]CC3OC4(CCCCC4)OC3C[NH2+]2)[O]C(=O)C12CCC2 [Example 32, cis-cyclobutane-1,1-dicarboxylato[(4R,5R)-4,5-bis(aminomethyl)-1,3-dioxolane-2-spiro-1'-cyclohexane]platinum(II)] | 1.05 |  |  |  |  |  |  | 900 | 
11 | CCC1OC2C[NH2+][Pt-2]3([NH2+]CC2O1)[O]C(=O)C(CC)C(=O)[O]3 [Example 43, cis-ethylmalonato[(4R,5R)-4,5-bis(aminomethyl)-2-ethyl-1,3-dioxolane]platinum(II)] | 0.72 |  |  |  | 197% | 245% | 7900 |  | toxic
12 | CCC1C(=O)[O][Pt-2]2([NH2+]CC3OC(C(C)C)OC3C[NH2+]2)[O]C1=O [Example 44, cis-ethylmalonato[(4R,5R)-4,5-bis(aminomethyl)-2-isopropyl-1,3-dioxolane]platinum(II)] | 0.47 |  |  |  | 137% | 169% |  | 7800 | 243%
13 | CCC1C(=O)[O][Pt]2([NH]C[C@H]3OC4(CCCC4)O[C@@H]3C[NH]2)[O]C1=O (stereo partly drawn) [Example 45, cis-ethylmalonato[(4R,5R)-4,5-bis(aminomethyl)-1,3-dioxolane-2-spiro-1'-cyclopentane]platinum (II)] | 1.40 |  |  |  | 147% | 232% | 2700 |  | 216%
14 | NC[C@@H]1OC2(CCCCC2)O[C@H]1CN.O=C1[O][Pt][O]C(=O)C12CCC2 [Example 46, cis-cyclobutane-1,1-dicarboxylato[(4S, 5S)-4,5-bis(aminomethyl)-1,3-dioxolane-2-spiro-1'-cyclohexane]platinum(II)] | 2.23 |  |  |  |  |  |  | 900 | 
15 | N.N.O=C([O-])C1(C(=O)[O-])CCC1.[Pt+2] [carboplatin, reference compound] | 1.98 |  | 107 | 125 | 148% | 196% | 10000 |  | 197%

— patent US5395947A, “Platinum(II) complex and processes for preparing the same” (Sunkyong Industries, Ltd., priority 1991, dated 1995)
